{
  "source": "patent US9751919B2",
  "about": "“Antimicrobial compositions comprising a hyaluronic acid binding peptide and a β-lactam antibiotic” (priority 2012, dated 2017)",
  "key": {"[1]": {"tested_on": "P. mirabilis", "experiment": "Checkerboard assay (FIC index)", "type": "cell-based, Proteus mirabilis", "conditions": "antibiotic combined with PEP35", "method": "(§1) The checkerboard assays were carried out as described by Eliopoulos and Moellering (Chapter 9) in Antibiotic in Laboratory Medicine, Lorian Ed. 1996 as well as Bonapace et al. Diagnostic Microbiology and Infectious Diseases 2002; 44:363-366 and Bonapace et al. Diagnostic Microbiology and Infectious Diseases 2000; 38:43-50. In brief, checkerboard assays were performed in 96 well microtitre trays using an 8-by-8 well configuration. […] 96-well custom designed microtitre plates contained 100 ul/well of cation adjusted Mueller-Hinton broth (eg. for Enterobacteriaceae) with or without lysed horse blood (2-5% V/V) [eg. for S. pneumoniae] and were inoculated to achieve a final concentration of approximately 5×10^5 CFU/ml and incubated in ambient air for 24 hours prior to reading. Colony counts were performed periodically to confirm inocula. Quality control was performed every two weeks using a variety of ATCC QC organisms including; S. pneumoniae 49619, S. aureus 29213, E. faecalis 29212, E. coli 25922 and P. aeruginosa 27853. For all antimicrobials as well as PEP35, CLSI criteria was used.\n(§2) The fractional inhibitory concentration index (FIC index) was used to interpret synergy, antagonism or additivity/indifference. FIC index=FIC of drug A+FIC of drug B where:\n(§3) The FIC of drug A and drug B is calculated as follows, FIC drug A=MIC of drug A in combination/MIC of drug A alone and FIC of drug B=MIC of drug B in combination/MIC of drug B alone. Synergy is defined as FIC index ≦0.5, additivity/indifference FIC >0.5-4 and antagonism FIC index >4.\n(§4) Antimicrobials used included PEP35, cefazolin, ceftriaxone, vancomycin, linezolid, tigecycline and daptomycin versus Gram-positive cocci and PEP35, gentamicin, levofloxacin, piperacillin/tazobactam, meropenem and colistin (Polymyxin E) versus Gram-negative bacilli. These agents were obtained as laboratory grade powders from their respective manufacturers. Stock solutions were prepared and dilutions made as described by the Clinical Laboratory Standards Institute (2005 CLSI).\n(§5) Organisms included Gram-positive cocci (2 strains of each): Methicillin-susceptible Staphylococcus aureus (MSSA), community-associated (CA) and healthcare-associated (HA) methicillin-resistant Staphylococcus aureus (MRSA), vancomycin-intermediate Staphylococcus aureus (VISA), vancomycin-resistant Staphylococcus aureus (VRSA), methicillin-resistant Staphylococcus epidermidis (MRSE), Streptococcus pyogenes, Streptococcus agalactiae, Streptococcus pneumoniae, Enterococcus faecalis, Enterococcus faecium and vancomycin-resistant enterococcus (VRE). Gram-negative bacilli tested (2 strains of each) included: E. coli, Pseudomonas aeruginosa, Klebsiella pneumoniae, K. oxytoca, Enterobacter cloacae, P. mirabilis and Stenotrophomonas maltophilia. MIC testing, following two subcultures from frozen stock were determined by the CLSI 2005 approved broth microdilution method."}, "[2]": {"tested_on": "MRSA, VISA, VRSA and E. coli", "experiment": "Checkerboard assay, panel statement", "type": "cell-based", "method": "Checkerboard assays were carried out as described by Bonapace et al.\nas §1, with “Diagnostic” for “The checkerboard assays were carried out as described by Eliopoulos and Moellering (Chapter 9) in Antibiotic in Laboratory Medicine, Lorian Ed. 1996 as well as Bonapace et al. Diagnostic”, “2002; 44:363-366.” for “2002; 44:363-366 and Bonapace et al. Diagnostic Microbiology and Infectious Diseases 2000; 38:43-50.”, “27853. […] All peptides were assessed for synergy with β-lactams and vancomycin.” for “27853.”, “as the peptides,” for “as PEP35,”, “criteria were” for “criteria was”\nas §2\nas §3, with “was” for “is”, “additivity/indifference defined as a” for “additivity/indifference”, “between 0.5 and 4” for “>0.5-4”, “antagonism defined as an” for “antagonism”\nThe fractional inhibitory concentration index (FIC index) was used to interpret synergy, antagonism or additivity/indifference. FIC index=FIC of drug A+FIC of drug B where the FIC of drug A and drug B was calculated as follows, FIC drug A=MIC of drug A in combination/MIC of drug A alone and FIC of drug B=MIC of drug B in combination/MIC of drug B alone. Synergy was defined as FIC index ≦0.5, additivity/indifference defined as an FIC of between 0.5 and 4 and antagonism defined as an FIC index >4."}, "[3]": {"tested_on": "P. mirabilis", "experiment": "MIC, agent alone (broth microdilution)", "type": "cell-based, Proteus mirabilis", "conditions": "footnote to Table 12; P. mirabilis 80267 and 81569", "description": "as §5"}, "[4]": {"tested_on": "Gram-negative bacilli", "experiment": "Checkerboard assay, panel statement", "type": "cell-based", "conditions": "with gentamicin, levofloxacin, piperacillin-tazobactam, meropenem and colistin; all Gram-negative bacilli tested", "method": "as §1, §2, §3, §4\nas §5, with “Gram-negative bacilli tested (2 strains of each) included: E. coli, Pseudomonas aeruginosa, Klebsiella pneumoniae, K. oxytoca, Enterobacter cloacae, P. mirabilis and Stenotrophomonas maltophilia.” left out"}, "[5]": {"tested_on": "Gram-positive cocci", "experiment": "Checkerboard assay, panel statement", "type": "cell-based", "method": "as §1, §2, §3, §4\nas §5, with “Gram-negative bacilli tested (2 strains of each) included: E. coli, Pseudomonas aeruginosa, Klebsiella pneumoniae, K. oxytoca, Enterobacter cloacae, P. mirabilis and Stenotrophomonas maltophilia.” left out"}, "[6]": {"conditions": "with cefazolin and ceftriaxone, versus CA-MRSA, HA-MRSA, VISA and VRSA"}, "[7]": {"conditions": "with meropenem versus CA-MRSA, HA-MRSA, and VISA"}},
  "note": "“Also recorded” adds a separate entry of the source. Marks after values point to notes of the source that are not given here.",
  "data": [
    {"compound": "C[C@@H](O)[C@H]1C(=O)N2C(C(=O)O)=C(S[C@@H]3CN[C@H](C(=O)N(C)C)C3)[C@H](C)[C@H]12", "note": "[Meropenem]", "values": [
      {"measurement": "Avg ΣFIC (range)", "setting": "[1]; P. mirabilis 80267", "value": ">1*"},
      {"measurement": "Avg ΣFIC (range)", "setting": "[1]; P. mirabilis 81569", "value": ">1*"}
    ]},
    {"compound": "KKKKKLQLQLNLIKKKVQVSVVVVRRH (Reordered human peptide sequence) [Scrambled PEP35]", "values": [
      {"measurement": "synergy (in words)", "setting": "[2]; [6]", "value": "synergistic effect"},
      {"measurement": "synergy (in words)", "setting": "[2]; [7]", "value": "synergistic effect"}
    ]},
    {"compound": "LKQKIKHVVKLKVVVKLRSQLVKRKQN (listed as Mus sp.) [PEP35]", "values": [
      {"measurement": "MIC", "setting": "[3]", "value": "*PEP35 MIC > 4096"},
      {"measurement": "synergy (in words)", "setting": "[2]; [6]", "value": "synergistic effect"},
      {"measurement": "synergy (in words)", "setting": "[2]; [7]", "value": "synergistic effect"},
      {"measurement": "interaction (in words)", "setting": "[4]", "value": "did not demonstrate antagonism or synergy; also recorded: additive"},
      {"measurement": "interaction (in words)", "setting": "[5]; with cefazolin and ceftriaxone, CA-MRSA and HA-MRSA", "value": "synergistic"},
      {"measurement": "antagonism (in words)", "setting": "[5]; with cefazolin, ceftriaxone, daptomycin, linezolid, tigecycline and vancomycin, any streptococci, staphylococci and enterococci tested", "value": "did not demonstrate antagonism"},
      {"measurement": "interaction (in words)", "setting": "[5]; with the six antibiotics, all streptococci, staphylococci and enterococci except CA-MRSA and HA-MRSA", "value": "additive"}
    ]},
    {"compound": "piperacillin/tazobactam", "values": [
      {"measurement": "Avg ΣFIC (range)", "setting": "[1]; P. mirabilis 80267", "value": ">0.5*"},
      {"measurement": "Avg ΣFIC (range)", "setting": "[1]; P. mirabilis 81569", "value": ">0.5*"}
    ]}
  ]
}
